Blank lines part the entries; values can stand above or below the molecule they belong to.
Key:
[1] = tested on: Hairy Beggarticks (Bidens pilosa); test: Herbicidal pre-emergence test, Hairy Beggarticks; assay type: in vivo; details: 1200 g/ha, scale of 0-100, 0 no activity, 100 total control, about two or four weeks after application
Description: (§1) Listed below, a typical planting design for the test, consisting of four monocot weeds, four dicot weeds and one sedge weed. [table] For each compound, evaluation tests were carried out according to the following procedures: For preemergence tests, immediately after planting, the test compound was sprayed directly onto the soil surface. The flats or pots were placed in the greenhouse and then watered. For postemergence tests, seeds were allowed to germinate and grow for 10 to 21 days before application. The test plants were selected for uniformity, size and stage of development. The test plants were then treated with the test compound, returned to the greenhouse and watered. Untreated plants were used as a comparison. The compound to be evaluated was dissolved in an appropriate solvent, usually acetone, or a formulation of the evaluated compounds as described above, was added to the water, and sprayed over the flats or pots using a carrier volume equivalent to 187 or 468 liters per hectare to give a rate of application in grams per hectare (g/ha). About two or four weeks after application of the test compounds, the state of the plant was observed. Each species was evaluated on a scale of 0-100 in which 0 equals no activity and 100 equals total control.

[2] = tested on: Perennial Ryegrass (Lolium perenne); test: Herbicidal post-emergence test, Perennial Ryegrass; assay type: in vivo; details: 1200 g/ha, scale of 0-100, 0 no activity, 100 total control, about two or four weeks after application
Description: as §1

[3] = tested on: Smartweed, (pale) (Polygonum lapathifolium); test: Herbicidal post-emergence test, Smartweed (pale); assay type: in vivo; details: 1200 g/ha, scale of 0-100, 0 no activity, 100 total control, about two or four weeks after application
Description: as §1

[4] = tested on: Foxtail, (green) (Setaria viridis); test: Herbicidal post-emergence test, Foxtail (green); assay type: in vivo; details: 1200 g/ha, scale of 0-100, 0 no activity, 100 total control, about two or four weeks after application
Description: as §1

[5] = tested on: Velvetleaf (Abutilon theophrasti); test: Herbicidal pre-emergence test, Velvetleaf; assay type: in vivo; details: 1200 g/ha, scale of 0-100, 0 no activity, 100 total control, about two or four weeks after application
Description: as §1

[6] = tested on: Nightshade, (black) (Solanum nigrum); test: Herbicidal post-emergence test, Nightshade (black); assay type: in vivo; details: 1200 g/ha, scale of 0-100, 0 no activity, 100 total control, about two or four weeks after application
Description: as §1

[7] = tested on: Perennial Ryegrass (Lolium perenne); test: Herbicidal pre-emergence test, Perennial Ryegrass; assay type: in vivo; details: 1200 g/ha, scale of 0-100, 0 no activity, 100 total control, about two or four weeks after application
Description: as §1

[8] = tested on: Smartweed, (pale) (Polygonum lapathifolium); test: Herbicidal pre-emergence test, Smartweed (pale); assay type: in vivo; details: 1200 g/ha, scale of 0-100, 0 no activity, 100 total control, about two or four weeks after application
Description: as §1

[9] = tested on: Crabgrass (large) (Digitaria sanguinalis); test: Herbicidal pre-emergence test, Crabgrass (large); assay type: in vivo; details: 1200 g/ha, scale of 0-100, 0 no activity, 100 total control, about two or four weeks after application
Description: as §1

[10] = tested on: Velvetleaf (Abutilon theophrasti); test: Herbicidal post-emergence test, Velvetleaf; assay type: in vivo; details: 1200 g/ha, scale of 0-100, 0 no activity, 100 total control, about two or four weeks after application
Description: as §1

[11] = tested on: Barnyardgrass (Echinochloa crusgalli); test: Herbicidal post-emergence test, Barnyardgrass; assay type: in vivo; details: 1200 g/ha, scale of 0-100, 0 no activity, 100 total control, about two or four weeks after application
Description: as §1

[12] = tested on: Hairy Beggarticks (Bidens pilosa); test: Herbicidal post-emergence test, Hairy Beggarticks; assay type: in vivo; details: 1200 g/ha, scale of 0-100, 0 no activity, 100 total control, about two or four weeks after application
Description: as §1

[13] = tested on: Nightshade, (black) (Solanum nigrum); test: Herbicidal pre-emergence test, Nightshade (black); assay type: in vivo; details: 1200 g/ha, scale of 0-100, 0 no activity, 100 total control, about two or four weeks after application
Description: as §1

[14] = tested on: Nutsedge, (yellow) (Cyperus esculentus); test: Herbicidal post-emergence test, Nutsedge (yellow); assay type: in vivo; details: 1200 g/ha, scale of 0-100, 0 no activity, 100 total control, about two or four weeks after application
Description: as §1

[15] = tested on: Crabgrass (large) (Digitaria sanguinalis); test: Herbicidal post-emergence test, Crabgrass (large); assay type: in vivo; details: 1200 g/ha, scale of 0-100, 0 no activity, 100 total control, about two or four weeks after application
Description: as §1

[16] = tested on: Foxtail, (green) (Setaria viridis); test: Herbicidal pre-emergence test, Foxtail (green); assay type: in vivo; details: 1200 g/ha, scale of 0-100, 0 no activity, 100 total control, about two or four weeks after application
Description: as §1

[17] = tested on: Nutsedge, (yellow) (Cyperus esculentus); test: Herbicidal pre-emergence test, Nutsedge (yellow); assay type: in vivo; details: 1200 g/ha, scale of 0-100, 0 no activity, 100 total control, about two or four weeks after application
Description: as §1

[18] = tested on: Barnyardgrass (Echinochloa crusgalli); test: Herbicidal pre-emergence test, Barnyardgrass; assay type: in vivo; details: 1200 g/ha, scale of 0-100, 0 no activity, 100 total control, about two or four weeks after application
Description: as §1

melting point: 90 to 91 °C
SMILES: COCC1(N2C(=O)NC(=O)C2=O)C=CC=C(OC2CC(F)CC2Cl)C1 (centres unmarked) [Compound 5, 1-methoxymethyl-3-(2-fluoro-4-chloro-5-cyclopentyloxy)phenyl-2,4,5-imidazolidinetrione]

melting point: 130 to 140 °C
SMILES: O=C1NC(=O)N(C2(OC3CC(F)CC3Cl)C=CC=CC2)C1=O (centres unmarked) [Compound 2, 1-(2-fluoro-4-chloro-5-cyclopentyloxy)phenyl-2,4,5-imidazolidinetrione]

SMILES: C#CCN1C(=O)COc2cc(F)c(N3C(=O)C(=O)N(C)C3=O)cc21 [Compound 22]
Herbicidal Activity BID (pre-emergence) [1]: 95
Herbicidal Activity RYE (post-emergence) [2]: 30
Herbicidal Activity SMT (post-emergence) [3]: 90
Herbicidal Activity FOX (post-emergence) [4]: 80
Herbicidal Activity VEL (pre-emergence) [5]: 40
Herbicidal Activity NS (post-emergence) [6]: 100
Herbicidal Activity RYE (pre-emergence) [7]: 0
Herbicidal Activity SMT (pre-emergence) [8]: 85
Herbicidal Activity CRB (pre-emergence) [9]: 100
Herbicidal Activity VEL (post-emergence) [10]: 100
Herbicidal Activity BYG (post-emergence) [11]: 60
Herbicidal Activity BID (post-emergence) [12]: 80
Herbicidal Activity NS (pre-emergence) [13]: 95
Herbicidal Activity NUT (post-emergence) [14]: 60
Herbicidal Activity CRB (post-emergence) [15]: 40
Herbicidal Activity FOX (pre-emergence) [16]: 100
Herbicidal Activity NUT (pre-emergence) [17]: 0
Herbicidal Activity BYG (pre-emergence) [18]: 40

— patent US6444615B1, “Herbicidal imidazolidinetrione and thioxo-imidazolidinediones” (Dow AgroSciences LLC, priority 2000, dated 2002)
